In patent publication US7517517B2 (Janssen Pharmaceutica N.V., priority 2002, dated 2009):

Experiments:
[1] = biological target: T1, cloned rat mGlu1 receptor (Rattus norvegicus, UniProt P23385); assay: Signal transduction at the cloned rat mGlu1 receptor in CHO cells (glutamate-induced Ca2+ rise, FLIPR); assay type: cell-based
T1 construct: expressed in transfected cells; host or cells: CHO cells

[2] = inhibition of glutamate-induced intracellular Ca2+ rise, CHO cells expressing mGlu1 receptor, compounds with pIC50 between 7 and 8
[3] = 50% inhibition of the glutamate-induced intracellular Ca2+ rise, CHO cells, FLIPR

T1 sequence (P23385 19-1199): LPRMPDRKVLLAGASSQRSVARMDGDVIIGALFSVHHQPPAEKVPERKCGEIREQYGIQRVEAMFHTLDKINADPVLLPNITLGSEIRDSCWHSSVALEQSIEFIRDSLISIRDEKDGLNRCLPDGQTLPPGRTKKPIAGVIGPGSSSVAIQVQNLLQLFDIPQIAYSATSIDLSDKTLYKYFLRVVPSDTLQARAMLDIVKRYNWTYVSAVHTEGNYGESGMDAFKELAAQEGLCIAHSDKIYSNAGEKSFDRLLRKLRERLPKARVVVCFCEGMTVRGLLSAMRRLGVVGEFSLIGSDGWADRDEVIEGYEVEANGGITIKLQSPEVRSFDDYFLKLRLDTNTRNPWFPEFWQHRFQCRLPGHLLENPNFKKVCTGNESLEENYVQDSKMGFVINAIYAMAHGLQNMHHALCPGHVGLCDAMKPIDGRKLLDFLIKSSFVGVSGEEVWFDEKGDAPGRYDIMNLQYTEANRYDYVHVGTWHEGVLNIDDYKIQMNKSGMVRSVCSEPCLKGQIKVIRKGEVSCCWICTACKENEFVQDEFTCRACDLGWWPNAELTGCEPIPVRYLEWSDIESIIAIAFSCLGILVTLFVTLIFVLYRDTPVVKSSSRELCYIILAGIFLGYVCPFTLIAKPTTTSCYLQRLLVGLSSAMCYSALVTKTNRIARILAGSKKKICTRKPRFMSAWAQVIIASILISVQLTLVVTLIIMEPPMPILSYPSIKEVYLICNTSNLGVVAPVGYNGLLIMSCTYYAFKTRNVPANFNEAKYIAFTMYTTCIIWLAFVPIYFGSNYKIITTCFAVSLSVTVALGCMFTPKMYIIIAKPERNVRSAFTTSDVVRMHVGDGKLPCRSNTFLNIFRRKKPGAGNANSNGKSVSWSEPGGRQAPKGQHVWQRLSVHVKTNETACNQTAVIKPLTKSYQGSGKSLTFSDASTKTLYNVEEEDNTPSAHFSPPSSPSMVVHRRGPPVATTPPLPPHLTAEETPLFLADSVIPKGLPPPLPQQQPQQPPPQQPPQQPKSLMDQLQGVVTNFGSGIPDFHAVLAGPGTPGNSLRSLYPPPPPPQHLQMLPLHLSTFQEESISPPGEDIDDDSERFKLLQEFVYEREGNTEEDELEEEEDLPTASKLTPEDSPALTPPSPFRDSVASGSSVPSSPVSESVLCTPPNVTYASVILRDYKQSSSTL

Row | Compound | IC50 [1, 2] [nM] | further results
1 | COC1CCCC(C(=O)c2ccc3nc4c(cc3c2)CCCO4)C1 (centres unmarked) [Compound 437] | 16.6 | 
2 | O=C(c1ccc2nc3c(cc2c1)CCCO3)C1COc2ccccc2O1 (centres unmarked) [Compound 438] | 64.6 | 
3 | O=C(Cc1ccccc1)c1ccc2nc3c(cc2c1)CCCS3 [Compound 439] |  | IC50 [1, 3]: 9.48 nM
4 | COC1CCCC(C(=O)c2ccc3nc4c(cc3c2)CCCO4)C1 (centres unmarked) [Compound 440] | 11.7 | 
5 | O=C(Cc1ccccc1)c1ccc2nc3c(cc2c1)CCS3 [Compound 441] | 11.2 | 
6 | CN(C)CC(C(=O)c1ccc2nc3c(cc2c1)CCS3)c1ccccc1 (centres unmarked) [Compound 442] | 93.3 | 
7 | O=C(c1ccc2nc3c(cc2c1)CCCS3)C1CC2CCC1C2 (centres unmarked) [Compound 445] | 23.4 | 
8 | O=C(Cc1ccccc1)c1ccc2nc3c(cc2c1)CCC3 [Compound 446] | 27.5 | 
9 | O=C(c1ccc2nc3c(cc2c1)CCS3)C1CC2CCC1C2 (centres unmarked) [Compound 447] | 19.1 | 
10 | O=C(CCc1ccccc1)c1ccc2nc3c(cc2c1)CCS3 [Compound 448] | 49 | 
11 | O=C(c1ccc2nc3c(cc2c1)CCS3)C12CC3CC(CC(C3)C1)C2 [Compound 449] | 17 | 
12 | O=C(Cc1ccccc1)c1ccc2nc3c(cc2c1)CCCCC3 [Compound 454] | 35.5 | 
13 | CC1Cc2cc3cc(C(=O)Cc4ccccc4)ccc3nc2O1 (centres unmarked) [Compound 455] |  | IC50 [1, 3]: 8.81 nM
14 | O=C(c1ccc2nc3c(cc2c1)CCCO3)C1CC2CCC1O2 (centres unmarked) [Compound 456] | 35.5 | 
15 | O=C(c1ccc2nc3c(cc2c1)CCCO3)C1CC2CCC1O2 (centres unmarked) [Compound 457] | 72.4 | 
16 | COC1CCC(C(=O)c2ccc3nc4c(cc3c2)CCCO4)=CO1 (centres unmarked) [Compound 460] | 45.7 | 
17 | O=C(c1ccc2nc3c(cc2c1)CCCO3)C1CC2C=CC1C2 (centres unmarked) [Compound 461] | 22.4 | 
18 | O=C(Cc1ccccc1)c1ccc2nc3sccc3cc2c1 [Compound 462] | 12.6 | 
19 | O=C(Cc1ccccc1)c1ccc2nc3c(cc2c1)CCO3 [Compound 463] | 10.5 | 
20 | O=C(Cc1ccsc1)c1ccc2nc3c(cc2c1)CCCO3 [Compound 465] |  | IC50 [1, 3]: 7.16 nM
21 | O=C(c1ccc2nc3c(cc2c1)CCS3)C1COc2ccccc2C1 (centres unmarked) [Compound 466] | 79.4 | 

Row | Compound | IC50 [1, 2] [nM] | further results
22 | CCc1cc2cc(/C=C/c3ccccc3)ccc2nc1C [Compound 471] |  | melting point: 140 °C
23 | O=C(Cc1cccc(F)c1)c1ccc2nc3c(cc2c1)CCCO3 [Compound 473] | 47.9 | 
24 | O=C(Cc1ccc(F)c(F)c1)c1ccc2nc3c(cc2c1)CCCO3 [Compound 474] | 74.1 | 
25 | O=C(Cc1ccc(F)cc1)c1ccc2nc3c(cc2c1)CCCO3 [Compound 475] | 19.5 | 
26 | O=C(Cc1ccccc1F)c1ccc2nc3c(cc2c1)CCCO3 [Compound 477] |  | IC50 [1, 3]: 5.62 nM
27 | O=C(CC1(F)CC2CCC1C2)c1ccc2nc3c(cc2c1)CCCO3 (centres unmarked) [Compound 482] | 45.7 | 
28 | O=C(Cc1ccc(F)cc1)c1ccc2nc3c(cc2c1)CCCS3 [Compound 483] | 13.8 | 
29 | O=C(Cc1cccc(F)c1)c1ccc2nc3c(cc2c1)CCCS3 [Compound 484] | 28.8 | 
30 | COC1CCC(F)(C(=O)c2ccc3nc4c(cc3c2)CCCO4)CC1 (centres unmarked) [Compound 488] |  | IC50 [1, 3]: 5.37 nM
31 | CC1(C(=O)c2ccc3nc4c(cc3c2)CCCO4)CC2CCC1C2 (centres unmarked) [Compound 494] | 29.5 | 
32 | O=C(c1ccc2nc3c(cc2c1)CCS3)C1(F)CC2CCC1C2 (centres unmarked) [Compound 496] | 66.1 | 
33 | O=C(CC1CC2CCC1C2)c1ccc2nc3c(cc2c1)CCCO3 (centres unmarked) [Compound 497] |  | IC50 [1, 3]: 9.44 nM
34 | O=C(Cc1ccc(Br)cc1)c1ccc2nc3c(cc2c1)CCCO3 [Compound 498] | 16.6 | 
35 | O=C(Cc1ccccc1F)c1ccc2nc3c(cc2c1)CCCS3 [Compound 499] |  | IC50 [1, 3]: 10 nM
36 | Cc1cc2nc3c(cc2cc1C(=O)Cc1ccccc1)CCCO3 [Compound 504] |  | IC50 [1, 3]: 5.37 nM
37 | Cc1cc2cc3c(cc2cc1C(=O)Cc1ccccc1)CCCS3 [Compound 506] |  | IC50 [1, 3]: 3.31 nM
38 | O=C(c1ccc2nc3c(cc2c1)CCCS3)C1COc2ccccc2O1 (centres unmarked) [Compound 512] | 74.1 | 
39 | c1ccc2c(-c3ccc4nc5c(cc4c3)CCS5)noc2c1 [Compound 514] |  | melting point: 185 °C
40 | CCc1cc2cc(-c3cc4ccccc4o3)ccc2nc1C [Compound 515] |  | melting point: 134 °C
41 | CCc1cc2cc(C(=O)Cc3ccccc3)ccc2nc1F [Compound 527] | 58.9 | 
